This experiment deals with P388 leukemia ip, CD2F1 mice, survival T/C. Briefly: NCI In Vivo Anticancer Drug Screen. Data for tumor model P388 Leukemia (intraperitoneal) in CD2F1 (CDF1) mice. As to conditions: endpoint: median survival time, higher = longer survival. In short, it runs like this: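 Mice carrying the transplanted tumor received test compound or vehicle. Survival was recorded in each group, and the value is the treated-group measurement divided by that of the vehicle-treated control group.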

[1] abbreviates: dose: 50.0 mg/kg/injection, schedule: Q01DX009 (ip), vehicle: saline with Tween-80.
Where [2] appears, read: dose: 25.0 mg/kg/injection, schedule: Q01DX009 (ip), vehicle: saline with Tween-80.
Setting [3] is: dose: 50.0 mg/kg/injection, schedule: Q01DX005 (ip), vehicle: Klucel (hydroxypropylcellulose) (HPC).
Setting [4] is: dose: 100.0 mg/kg/injection, schedule: Q01DX005 (ip), vehicle: Klucel (hydroxypropylcellulose) (HPC).
Setting [5] is: dose: 200.0 mg/kg/injection, schedule: Q01DX005 (ip), vehicle: Klucel (hydroxypropylcellulose) (HPC).
Where [6] appears, read: dose: 100.0 mg/kg/injection, schedule: Q04DX003 (ip), vehicle: Klucel (hydroxypropylcellulose) (HPC).
Where [7] appears, read: dose: 200.0 mg/kg/injection, schedule: Q04DX003 (ip), vehicle: Klucel (hydroxypropylcellulose) (HPC).
Where [8] appears, read: dose: 400.0 mg/kg/injection, schedule: Q04DX003 (ip), vehicle: Klucel (hydroxypropylcellulose) (HPC).
The mark [9] stands for this setting: dose: 100.0 mg/kg/injection, schedule: Q04DX002 (ip), vehicle: saline with Tween-80.
[10] abbreviates: dose: 200.0 mg/kg/injection, schedule: Q04DX002 (ip), vehicle: saline with Tween-80.
The mark [11] stands for this setting: dose: 60.0 mg/kg/injection, schedule: Q01DX005 (ip), vehicle: saline with Tween-80.
Where [12] appears, read: dose: 120.0 mg/kg/injection, schedule: Q01DX005 (ip), vehicle: saline with Tween-80.
The mark [13] stands for this setting: dose: 240.0 mg/kg/injection, schedule: Q01DX005 (ip), vehicle: saline with Tween-80.
Where [14] appears, read: dose: 100.0 mg/kg/injection, schedule: Q01DX009 (ip), vehicle: saline with Tween-80.
Setting [15] is: dose: 200.0 mg/kg/injection, schedule: Q01DX009 (ip), vehicle: saline with Tween-80.
Setting [16] is: dose: 50.0 mg/kg/injection, schedule: Q01DX009 (ip), vehicle: saline.

The structures appear in SMILES notation. Several values for one entry are separate records, joined by “and”; a condition that tells them apart may be missing. Identical values can stand only once. Inconclusive results and toxic doses are left out.

Regarding `CC(=O)OC1CC2(C)C(c3ccoc3)CC3OC32C2(C)C(=O)C(O)=C3C(C)(C)C(=O)C=CC3(C)C12` (stereo not given), the T/C runs as follows: (dose: 3.0 mg/kg/injection, schedule: Q01DX009 (ip), vehicle: Klucel (hydroxypropylcellulose) (HPC)) 96 % of control; (dose: 6.0 mg/kg/injection, schedule: Q01DX009 (ip), vehicle: Klucel (hydroxypropylcellulose) (HPC)) 100 % of control; (dose: 12.0 mg/kg/injection, schedule: Q01DX009 (ip), vehicle: Klucel (hydroxypropylcellulose) (HPC)) 100 % of control; (dose: 24.0 mg/kg/injection, schedule: Q01DX009 (ip), vehicle: Klucel (hydroxypropylcellulose) (HPC)) 99 % of control.

Regarding `CCN(CC)CCCC(=O)O`, the T/C (dose: 50.0 mg/kg/injection, schedule: Q01DX005 (ip), vehicle: saline) was 100 % of control; the T/C (dose: 100.0 mg/kg/injection, schedule: Q01DX005 (ip), vehicle: saline) was 100 % of control; the T/C (dose: 200.0 mg/kg/injection, schedule: Q01DX005 (ip), vehicle: saline) was 100 % of control.

Turning to `O=C1CS/C(=N\C(=O)Nc2cccc(C(F)(F)F)c2)N1`, the T/C is, setting by setting: (dose: 12.5 mg/kg/injection, schedule: Q01DX009 (ip), vehicle: saline) 103 % of control; (dose: 25.0 mg/kg/injection, schedule: Q01DX009 (ip), vehicle: saline) 94 % of control; under setting [1], 87 % of control.

With `CCCc1cccc2c3c([nH]c12)C(CC)(CC(=O)O)CCC3` (stereo not given), the T/C reads like this: (dose: 12.5 mg/kg/injection, schedule: Q01DX009 (ip), vehicle: saline with Tween-80) 97 % of control; under setting [2], 106 % of control; under setting [1], 98 % of control and 97 % of control.

Take `CN(C)CCCSc1ccccc1NC1=C(Cl)C(=O)C(Nc2ccccc2SCCCN(C)C)=C(Cl)C1=O`: the T/C was 100 % of control (dose: 6.25 mg/kg/injection, schedule: Q01DX005 (ip), vehicle: Klucel (hydroxypropylcellulose) (HPC)); 106 % of control (dose: 12.5 mg/kg/injection, schedule: Q01DX005 (ip), vehicle: Klucel (hydroxypropylcellulose) (HPC)); 98 % of control (dose: 25.0 mg/kg/injection, schedule: Q01DX005 (ip), vehicle: Klucel (hydroxypropylcellulose) (HPC)); 106 % of control under setting [3]; 108 % of control under setting [4]; 104 % of control under setting [5].

As to `COC(=O)C1c2c(C)cc3n2C(C=C(C)C3)C1C(=O)OC` (stereo not given), the T/C reads like this: under setting [6], 100 % of control; under setting [7], 105 % of control; under setting [8], 95 % of control.

Take `O=C(CSC1CCc2ccccc21)NNC(=O)Nc1ccc(Cl)cc1` (stereo not given): the T/C by setting is: under setting [3], 90 % of control; under setting [4], 95 % of control; under setting [5], 89 % of control.

As to `O=C1c2ccccc2C(=O)C1(Br)c1ccccc1`, the T/C runs as follows: under setting [9], 99 % of control; under setting [10], 101 % of control.

Regarding `O=C(COc1ccc([N+](=O)[O-])cc1)NN1C(=O)c2ccc([N+](=O)[O-])cc2C1=O`, the T/C runs as follows: (dose: 60.0 mg/kg/injection, schedule: Q01DX005 (ip), vehicle: Klucel (hydroxypropylcellulose) (HPC)) 92 % of control; (dose: 120.0 mg/kg/injection, schedule: Q01DX005 (ip), vehicle: Klucel (hydroxypropylcellulose) (HPC)) 91 % of control; (dose: 240.0 mg/kg/injection, schedule: Q01DX005 (ip), vehicle: Klucel (hydroxypropylcellulose) (HPC)) 87 % of control.

Take `O=C(/C=C/c1ccc(Cl)cc1)NC1C=Nc2ccc([N+](=O)[O-])cc2NC1=O` (stereo not given): the T/C reads like this: under setting [11], 105 % of control; under setting [12], 100 % of control; under setting [13], 98 % of control.

In the case of `CN1CCN(C(=O)N2CCCc3ccccc32)CC1`, the T/C runs as follows: (dose: 100.0 mg/kg/injection, schedule: Q04DX003 (ip), vehicle: saline) 101 % of control; (dose: 200.0 mg/kg/injection, schedule: Q04DX003 (ip), vehicle: saline) 99 % of control.

Turning to `COc1ccc(CCCNC(=O)Cc2ccccc2)cc1OC`, the T/C was 92 % of control under setting [1], 92 % of control under setting [14] and 91 % of control under setting [15].

On to `CCOC1CC2CCCN2O1` (stereo not given), for which the T/C (dose: 75.0 mg/kg/injection, schedule: Q01DX009 (ip), vehicle: saline) was 103 % of control; the T/C (dose: 150.0 mg/kg/injection, schedule: Q01DX009 (ip), vehicle: saline) was 100 % of control; the T/C (dose: 300.0 mg/kg/injection, schedule: Q01DX009 (ip), vehicle: saline) was 94 % of control.

Consider `COC(=O)C1CC(c2ccccc2)N(C(C)(C)C)O1` (stereo not given), for which the T/C under setting [9] was 97 % of control; the T/C under setting [10] was 100 % of control; the T/C (dose: 400.0 mg/kg/injection, schedule: Q04DX002 (ip), vehicle: saline with Tween-80) was 100 % of control.

On to `Cc1cc(N)ccc1Cl`, for which the T/C was 97 % of control under setting [2], 110 % of control under setting [1], 93 % of control under setting [14] and 96 % of control under setting [15].

`N#C/C(=C\c1ccccn1)c1ccc(Cl)cc1`: the T/C was 100 % of control (dose: 18.75 mg/kg/injection, schedule: Q01DX009 (none), vehicle: saline); 99 % of control (dose: 37.5 mg/kg/injection, schedule: Q01DX009 (none), vehicle: saline); 90 % of control (dose: 75.0 mg/kg/injection, schedule: Q01DX009 (none), vehicle: saline).

As for `O=C1CS/C(=N/C(=O)Nc2ccc(Cl)cc2)N1`, the T/C runs as follows: (dose: 25.0 mg/kg/injection, schedule: Q04DX002 (ip), vehicle: Klucel (hydroxypropylcellulose) (HPC)) 90 % of control; (dose: 50.0 mg/kg/injection, schedule: Q04DX002 (ip), vehicle: Klucel (hydroxypropylcellulose) (HPC)) 88 % of control; (dose: 100.0 mg/kg/injection, schedule: Q04DX002 (ip), vehicle: Klucel (hydroxypropylcellulose) (HPC)) 91 % of control; (dose: 200.0 mg/kg/injection, schedule: Q04DX002 (ip), vehicle: Klucel (hydroxypropylcellulose) (HPC)) 95 % of control; (dose: 400.0 mg/kg/injection, schedule: Q04DX002 (ip), vehicle: Klucel (hydroxypropylcellulose) (HPC)) 87 % of control.

Consider `COC(=O)CC12CC3(C)CC(C)(C1)CC(CC(=O)OC)(C3)C2`, for which the T/C is 99 % of control under setting [1]; 99 % of control and 108 % of control under setting [14]; 103 % of control and 113 % of control under setting [15].

Take `CN(Cc1ccccc1)C(=O)Nc1c(Cl)cccc1Cl`: the T/C is 103 % of control under setting [11], 99 % of control under setting [12] and 95 % of control under setting [13].

On to `CCCCCC(CN(C)C)C(/C=C/c1ccccc1Cl)=N\O` (stereo not given), for which the T/C is 106 % of control under setting [16] and 112 % of control (dose: 100.0 mg/kg/injection, schedule: Q01DX009 (ip), vehicle: saline).

`COC(=O)CC(O)(CCCC(C)(C)O)C(=O)OC1C(OC)=CC23CCCN2CCc2cc4c(cc2C13)OCO4` (stereo not given) (tested in a mixture with another compound): the T/C runs as follows: (dose: 0.5 mg/kg/injection, schedule: Q01DX009 (ip), vehicle: saline with Tween-80) 153 % of control; (dose: 1.0 mg/kg/injection, schedule: Q01DX009 (ip), vehicle: saline with Tween-80) 201 % of control; (dose: 2.0 mg/kg/injection, schedule: Q01DX009 (ip), vehicle: saline with Tween-80) 206 % of control.

`O=C1OCCOCCOCCOCCOCCOCCOC(=O)c2cccc1n2`: the T/C under setting [6] is 100 % of control, the T/C under setting [7] was 100 % of control and the T/C under setting [8] is 100 % of control.

Consider `FC(F)(F)c1ccc2cc(C3(C4CCNCC4)CCCO3)c3ccc(C(F)(F)F)cc3c2c1` (stereo not given), for which the T/C by setting is: (dose: 12.5 mg/kg/injection, schedule: Q01DX009 (ip), vehicle: distilled water + Tween-80) 104 % of control; (dose: 25.0 mg/kg/injection, schedule: Q01DX009 (ip), vehicle: distilled water + Tween-80) 95 % of control.

For `CN1CCC(CNc2ccccc2)CC1`, the T/C by setting is: (dose: 7.5 mg/kg/injection, schedule: Q01DX005 (ip), vehicle: saline) 98 % of control; (dose: 15.0 mg/kg/injection, schedule: Q01DX005 (ip), vehicle: saline) 98 % of control.

Take `CN1CCN(c2ccc3nc(-c4ccc5nc(-c6ccc(O)cc6)[nH]c5c4)[nH]c3c2)CC1`: the T/C under setting [16] is 153 % of control.
